Series [1] is described as follows: Signal intensity of near-infrared fluorescence of ICG-MAA complexes at various ICG and MAA mixing ratios. Format: physicochemical. As to conditions: for Signal intensity of near-infrared fluorescence: MAA 0 mg/ml.
For series [2] the following is noted: 18 breast cancer patients (T. Kitai, et al., Breast Cancer, 12:211-215, 2005); cited from earlier work.

`CC1(C)C(/C=C/C=C/C=C/C=C2\N(CCCCS(=O)(=O)O)c3ccc4ccccc4c3C2(C)C)=[N+](CCCCS(=O)(=O)[O-])c2ccc3ccccc3c21` [ICG, indocyanine green]: the “Signal intensity of near-infrared fluorescence” value was 289 in series [1] (ICG 9.0 μM); 363 in series [1] (ICG 12.9 μM); 466 in series [1] (ICG 25.8 μM); 425 in series [1] (ICG 38.7 μM); 399 in series [1] (ICG 51.6 μM); 374 in series [1] (ICG 64.5 μM). Further, the “Signal intensity of near-infrared fluorescence” value in series [1] (ICG 77.4 μM) came out at 332; in series [1] (ICG 103 μM) it was 289; in series [1] (ICG 258 μM) it was 139; in series [1] (ICG 516 μM), 71; in series [1] (ICG 774 μM), 39; in series [1] (ICG 1032 μM) it was 30. In series [1] (MAA was not treated), the “ICG concentration showing the highest value of signal intensity of near-infrared fluorescence” value was 25.8 µM. In addition, the Clinical safety entry in series [2] is reported as “safely used”.
